Data taken from PMC8062543 (Scientific Reports, 2021).

Tests used:
MtmGDH [1] = molecular target: T1, MtmGDH (Methylotuvimicrobium alcaliphilum, UniProt G4T0V2); experiment: biochemical; conditions: read-out: % of control remaining; for remaining activity at 1000 µM: 1 mM; for remaining activity at 5000 µM: 5 mM
T1 construct: gene gdhI; full ORF, N-terminal His6 kept, E. coli Rosetta (DE3), pET28
T1 sequence (G4T0V2 1-271): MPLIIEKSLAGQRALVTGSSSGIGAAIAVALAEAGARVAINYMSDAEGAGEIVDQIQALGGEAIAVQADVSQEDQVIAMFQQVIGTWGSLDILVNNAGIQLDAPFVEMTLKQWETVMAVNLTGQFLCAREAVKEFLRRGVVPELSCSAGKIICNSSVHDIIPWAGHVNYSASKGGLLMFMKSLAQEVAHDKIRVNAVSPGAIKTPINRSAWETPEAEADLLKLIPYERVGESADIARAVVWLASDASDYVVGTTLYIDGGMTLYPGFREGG
Description: GDH activity assay The activity of GDH from Mtm. alcaliphilum was measured by recording the rate of NAD^+ or NADP^+ reduction at 30 °C. 1 mL of the reaction mixture routinely contained 50 mM Glycine–NaOH buffer, pH 10.0; 0.3 mM NAD(P)^+ and ~ 1 μg of GDH. The reaction was started with 200 mM D-glucose. The activity of Mb. luteus GDH was measured using 20 mM D-glucose in 50 mM Tris–HCl, pH 8.5. […] The effect of pH on the activity was studied using the following buffers (50 mM): Glycine–NaOH (pH 9.0–10.5), CHES-NaOH (pH 8.5–10.0), Tris–HCl (pH 7.5–9.0), and MES-NaOH (pH 5.0–7.0). KCl, NH4Cl or NaCl at a final concentration of 50 mM were added to test the effect of monovalent ions on the enzyme activity. The effects of divalent metals were assessed using MgCl2, MnCl2, [compound left out], CuCl2, CdCl2, NiCl2 or ZnCl2 at a final concentration of 1 mM. Glucose-6-phosphate, glucose-1-phosphate, fructose-6-phosphate, fructose-1,6-bisphosphate (5 mM), pyruvate, PEP, oxaloacetate, lactate, malate, isocitrate, citrate, succinate, serine, α-ketoglutarate, ATP, ADP, AMP and PPi (1 mM) were examined as potential inhibitors or activators. To determine the optimal temperature for enzyme activity, the reaction was carried out in a temperature range of 10–70 °C.

MtmGntK = molecular target: T2, MtmGntK (Methylotuvimicrobium alcaliphilum, UniProt G4T089); experiment: biochemical; parameters: recombinant gluconate kinase activity, coupled to 6-phosphogluconate dehydrogenase, NADPH at 340 nm, effect of added metabolite; conditions: read-out: % of control remaining; for remaining activity at 5000 µM: 5 mM; for remaining activity at 1000 µM: 1 mM
T2 construct: gene gntK; C-terminal His6, E. coli Rosetta (DE3), pET30; ~20 kDa, monomer
T2 sequence (G4T089 1-181): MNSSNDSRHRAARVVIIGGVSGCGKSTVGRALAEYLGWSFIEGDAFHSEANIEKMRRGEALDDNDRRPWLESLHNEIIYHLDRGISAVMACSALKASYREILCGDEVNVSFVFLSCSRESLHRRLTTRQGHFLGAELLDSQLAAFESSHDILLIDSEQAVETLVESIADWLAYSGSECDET
Description: GntK activity assay The activity of GntK was measured in the reaction mixture containing 50 mM Tris–HCl buffer, pH 9.0; 8 mM MgCl2; 6 mM gluconate; 5 mM ATP; 0.3 mM NADP^+; 5U 6-phosphogluconate dehydrogenase (6PGDH, Sigma-Aldrich) as a coupling enzyme and ~ 15 µg GntK. The activity of Mb. luteus GntK was assayed in 50 mM Tris–HCl buffer (pH 8.0). The reaction was started with 6 mM sodium gluconate. To study the effect of pH, the following buffers were used (50 mM): Carbonate (pH 9.0–10.5), TAPS-NaOH (pH 8.0–9.0), Tris–HCl (pH 7.5–9.0), K-phosphate (pH 7.0–8.0), MES-NaOH (pH 5.0–6.0) or citrate (pH 4.0–5.0). […] The NAD^+/NADP^+ reduction rates were measured at 340 nm with a UV-1700 spectrophotometer (Shimadzu). The apparent Km and Vmax values were calculated using Sigma Plot (version 10). The exponentially grown cells were used to measure enzymatic activity in cell-free extracts.

[2] = test system: T3, NC(=O)c1ccc[n+]([C@@H]2O[C@H](COP(=O)(O)OP(=O)(O)OC[C@H]3O[C@@H](n4cnc5c(N)ncnc54)[C@H](O)[C@@H]3O)[C@@H](O)[C@H]2O)c1; experiment: purified protein; format: biochemical, Methylobacter luteus; conditions: pH 8.5 Tris-HCl, D-glucose
T3 construct: full ORF, N-terminal His6 (pET28Ub-shHis)

[3] = test system: T4, NC(=O)c1ccc[n+]([C@@H]2O[C@H](COP(=O)(O)OP(=O)(O)OC[C@H]3O[C@@H](n4cnc5c(N)ncnc54)[C@H](OP(=O)(O)O)[C@@H]3O)[C@@H](O)[C@H]2O)c1; experiment: purified protein; format: biochemical, Methylobacter luteus; conditions: pH 8.5 Tris-HCl, D-glucose
T4 construct: full ORF, N-terminal His6 (pET28Ub-shHis)

[4] = molecular target: glucose dehydrogenase (GDH) from Methylobacter luteus IMV-B-3098 (Methylobacter luteus IMV-B-3098); experiment: SEC; gel filtration on XK 16/100 Superdex 200, 0.02 M Tris-HCl pH 7.0 with 0.5 M NaCl, calibrated with protein markers; GDHs with the cut-off His-tag
MbGDH = molecular target: T5, MbGDH (Methylobacter luteus, UniProt Z9JUG8QEO0); experiment: NAD(P)H formation at […] nm; format: biochemical; conditions: inhibitor; 10 mM in results (5 mM in methods); pH 8.5 Tris-HCl, 20 mM D-glucose
T5 construct: gene gdh; full ORF, N-terminal His6 (pET28Ub-shHis)
T5 sequence (Z9JUG8QEO0 1-271 limits assumed): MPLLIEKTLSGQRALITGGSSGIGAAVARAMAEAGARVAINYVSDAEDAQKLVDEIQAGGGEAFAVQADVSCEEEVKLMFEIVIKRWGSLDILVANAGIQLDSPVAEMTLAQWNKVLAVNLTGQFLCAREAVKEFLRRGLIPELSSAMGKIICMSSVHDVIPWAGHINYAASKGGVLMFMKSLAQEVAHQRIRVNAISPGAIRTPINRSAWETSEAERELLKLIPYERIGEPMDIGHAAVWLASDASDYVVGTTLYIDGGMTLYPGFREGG

[5] = molecular target: glucose dehydrogenase (GDH) from Methylotuvimicrobium alcaliphilum 20Z (Methylotuvimicrobium alcaliphilum 20Z); experiment: SEC; gel filtration on XK 16/100 Superdex 200, 0.02 M Tris-HCl pH 7.0 with 0.5 M NaCl, calibrated with protein markers; GDHs with the cut-off His-tag
MtmGDH [6] = molecular target: T6, MtmGDH (Methylotuvimicrobium alcaliphilum, UniProt G4T0V2); experiment: NAD(P)H formation at […] nm; format: biochemical; conditions: activator; pH 10.0 glycine-NaOH, 30 °C, 200 mM D-glucose
T6 construct: gene gdhI; full ORF, N-terminal His6 kept, E. coli Rosetta (DE3), pET28

purified protein [7] = substrate: NC(=O)c1ccc[n+]([C@@H]2O[C@H](COP(=O)(O)OP(=O)(O)OC[C@H]3O[C@@H](n4cnc5c(N)ncnc54)[C@H](O)[C@@H]3O)[C@@H](O)[C@H]2O)c1; experiment: purified protein; format: biochemical, Methylotuvimicrobium alcaliphilum; conditions: pH 10.0 glycine-NaOH, 30 °C, 200 mM D-glucose
purified protein [8] = substrate: NC(=O)c1ccc[n+]([C@@H]2O[C@H](COP(=O)(O)OP(=O)(O)OC[C@H]3O[C@@H](n4cnc5c(N)ncnc54)[C@H](OP(=O)(O)O)[C@@H]3O)[C@@H](O)[C@H]2O)c1; experiment: purified protein; format: biochemical, Methylotuvimicrobium alcaliphilum; conditions: pH 10.0 glycine-NaOH, 30 °C, 200 mM D-glucose
purified protein [9] = substrate: Nc1ncnc2c1ncn2[C@@H]1O[C@H](COP(=O)(O)OP(=O)(O)OP(=O)(O)O)[C@@H](O)[C@H]1O; experiment: purified protein; format: biochemical, Methylotuvimicrobium alcaliphilum; conditions: pH 9.0 Tris-HCl, 8 mM MgCl2, 6 mM gluconate, Hill n = 1.6
purified protein [10] = substrate: O=C(O)[C@H](O)[C@@H](O)[C@H](O)[C@H](O)CO; experiment: purified protein; format: biochemical, Methylotuvimicrobium alcaliphilum; conditions: pH 9.0 Tris-HCl, 8 mM MgCl2, 5 mM ATP

`O=C(O)CCC(=O)O` [Succinate] showed a remaining activity at 1000 µM (MtmGDH [1]) of 99 ± 1%.

For `Nc1ncnc2c1ncn2[C@@H]1O[C@H](COP(=O)(O)O)[C@@H](O)[C@H]1O` [AMP], the remaining activity at 1000 µM (MtmGDH [1]) was 109 ± 1% and the remaining activity at 4000 µM (MtmGntK; 4 mM) was 98 ± 1%.

MbGDH (Methylobacter luteus) gave a Km [2] of 0.12 ± 0.02 mM, a kcat [2] of 3 min⁻¹ and a Km [3] of 1.6 ± 0.3 mM. For the same molecule, the kcat [3] was 4 min⁻¹.

`C=C(OP(=O)(O)O)C(=O)O` [Phosphoenolpyruvate] showed a remaining activity at 1000 µM (MtmGDH [1]) of 94% and a remaining activity at 5000 µM (MtmGntK) of 84 ± 1%.

With `CC(=O)C(=O)O` [Pyruvate] the remaining activity at 1000 µM (MtmGDH [1]) was 96 ± 1% and the remaining activity at 3000 µM (MtmGntK; 3 mM) was 95 ± 2%.

“glucose dehydrogenase (GDH) from Methylobacter luteus IMV-B-3098 (enzyme)” gave a stoichiometry N [4] of 4.

`O=C(O)CC(O)C(=O)O` (stereo not drawn) [Malate] gave a remaining activity at 1000 µM (MtmGDH [1]) of 95 ± 5%.

`O=C(O)CC(=O)C(=O)O` [Oxaloacetate] showed a remaining activity at 1000 µM (MtmGDH [1]) of 107 ± 3% and a remaining activity at 1000 µM (MtmGntK) of 101 ± 1%.

Work on `Nc1ncnc2c1ncn2[C@@H]1O[C@H](COP(=O)(O)OP(=O)(O)OP(=O)(O)O)[C@@H](O)[C@H]1O` [ATP] yielded a remaining activity at 1000 µM (MtmGDH [1]) of 93 ± 2%.

`O=P(O)(O)O[C@H]1O[C@H](CO)[C@@H](O)[C@H](O)[C@H]1O` [Glucose 1-Phosphate] gave a remaining activity at 5000 µM (MtmGntK) of 96 ± 2%.

`O=C(CO)[C@@H](O)[C@H](O)[C@H](O)COP(=O)(O)O` [Fructose-6-phosphate] showed a remaining activity at 5000 µM (MtmGDH [1]) of 101 ± 1%.

Molecule `Nc1ncnc2c1ncn2[C@@H]1O[C@H](COP(=O)(O)OP(=O)(O)O)[C@@H](O)[C@H]1O` [ADP] has a remaining activity at 1000 µM (MtmGDH [1]) of 87 ± 1% and a remaining activity at 5000 µM (MtmGntK) of 71 ± 1%.

In the case of `O=C(O)CC(O)(CC(=O)O)C(=O)O` [Citrate], the remaining activity at 1000 µM (MtmGDH [1]) is reported as 119 ± 1%.

In the case of `O=P(O)(O)O[C@H]1O[C@H](CO)[C@@H](O)[C@H](O)[C@H]1O` [Glucose-1-phosphate], the remaining activity at 5000 µM (MtmGDH [1]) is reported as 103 ± 1%.

For `O=P(O)(O)OC[C@H]1O[C@@](O)(COP(=O)(O)O)[C@@H](O)[C@@H]1O` [Fructose-1,6-bisphosphate], the remaining activity at 5000 µM (MtmGDH [1]) was 103 ± 1%.

Work on `CC(O)C(=O)O` (stereo not drawn) [Lactate] yielded a remaining activity at 1000 µM (MtmGDH [1]) of 116 ± 1%.

For `O=P(O)(O)OC[C@H]1OC(O)[C@H](O)[C@@H](O)[C@@H]1O` (stereo partly drawn) [glucose-6-phosphate], the “% decrease of activity at 10 mM” value (MbGDH) was 40% and the remaining activity at 5000 µM (MtmGntK) was 96 ± 1%.

“glucose dehydrogenase (GDH) from Methylotuvimicrobium alcaliphilum 20Z (enzyme)” gave a stoichiometry N [5] of 4.

With `O=C(O)C[C@H](C(=O)O)[C@@H](O)C(=O)O` [isocitrate] the “% increase of activity at 1 mM” value (MtmGDH [6]) was 40% and the remaining activity at 1000 µM (MtmGDH [1]) was 140 ± 4%.

`O=C(O)CCC(=O)C(=O)O` [α-Ketoglutarate] showed a remaining activity at 1000 µM (MtmGDH [1]) of 104 ± 1% and a remaining activity at 1000 µM (MtmGntK) of 90 ± 2%.

Molecule `N[C@@H](CO)C(=O)O` [Serine] has a remaining activity at 1000 µM (MtmGDH [1]) of 108 ± 3%.

B1: MtmGDH without His6-tag (Methylotuvimicrobium alcaliphilum 20Z) (protein)
chain: MPLIIEKSLAGQRALVTGSSSGIGAAIAVALAEAGARVAINYMSDAEGAGEIVDQIQALGGEAIAVQADVSQEDQVIAMFQQVIGTWGSLDILVNNAGIQLDAPFVEMTLKQWETVMAVNLTGQFLCAREAVKEFLRRGVVPELSCSAGKIICNSSVHDIIPWAGHVNYSASKGGLLMFMKSLAQEVAHDKIRVNAVSPGAIKTPINRSAWETPEAEADLLKLIPYERVGESADIARAVVWLASDASDYVVGTTLYIDGGMTLYPGFREGG
notes: full ORF, His6 tag cut off with Usp2-His6 protease (not repurified afterwards), E. coli Rosetta (DE3), pET28Ub-shHis; homotetramer 112 kDa
For B1, the Km (purified protein [7]) was 0.39 ± 0.06 mM and the Km (purified protein [8]) was 0.34 ± 0.02 mM.

B2: MtmGDH (Methylotuvimicrobium alcaliphilum 20Z) (protein)
chain: MPLIIEKSLAGQRALVTGSSSGIGAAIAVALAEAGARVAINYMSDAEGAGEIVDQIQALGGEAIAVQADVSQEDQVIAMFQQVIGTWGSLDILVNNAGIQLDAPFVEMTLKQWETVMAVNLTGQFLCAREAVKEFLRRGVVPELSCSAGKIICNSSVHDIIPWAGHVNYSASKGGLLMFMKSLAQEVAHDKIRVNAVSPGAIKTPINRSAWETPEAEADLLKLIPYERVGESADIARAVVWLASDASDYVVGTTLYIDGGMTLYPGFREGG
notes: full ORF, N-terminal His6 kept, E. coli Rosetta (DE3), pET28
In the case of B2, the Km (purified protein [7]) is reported as 0.36 ± 0.02 mM, the kcat (purified protein [7]) is reported as 10.6 min⁻¹ and the Km (purified protein [8]) is reported as 0.14 ± 0.01 mM. The kcat (purified protein [8]) was 0.35 min⁻¹.

B3: MtmGntK (Methylotuvimicrobium alcaliphilum 20Z) (protein)
chain: MNSSNDSRHRAARVVIIGGVSGCGKSTVGRALAEYLGWSFIEGDAFHSEANIEKMRRGEALDDNDRRPWLESLHNEIIYHLDRGISAVMACSALKASYREILCGDEVNVSFVFLSCSRESLHRRLTTRQGHFLGAELLDSQLAAFESSHDILLIDSEQAVETLVESIADWLAYSGSECDET
notes: C-terminal His6, E. coli Rosetta (DE3), pET30; ~20 kDa, monomer
B3 was tested, and the K0.5 (purified protein [9]) was 1.3 ± 0.2 mM, the kcat (purified protein [9]) was 0.52 min⁻¹ and the K0.5 (purified protein [10]) was 0.6 ± 0.04 mM. It also gave a kcat (purified protein [10]) of 0.26 min⁻¹.
